The results in this text go back to patent publication US9145392B2, “Imidazole amines as modulators of kinase activity” (Merck Patent GmbH, priority 2011, dated 2015).

In one assay the target is His-AKT (Full Length) (Homo sapiens (Human), UniProt P31749). Nature of the assay: AKT enzyme assay. Format: biochemical. As to conditions: read-out: IC50 AKT.
In the next assay the target is P70S6K (T412E mutant) (Homo sapiens (Human), UniProt P23443, T412E). Briefly: P70S6K enzyme assay. It counts as biochemical. As to conditions: read-out: IC50 p70S6K. The gist of the method: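 Phosphorylated product and substrate peptide separated by microfluidic capillary electrophoresis (Caliper LabChip 3000), product peaks resolving before substrate.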
P70S6K (T412E mutant), sequence (P23443 whole entry T412E): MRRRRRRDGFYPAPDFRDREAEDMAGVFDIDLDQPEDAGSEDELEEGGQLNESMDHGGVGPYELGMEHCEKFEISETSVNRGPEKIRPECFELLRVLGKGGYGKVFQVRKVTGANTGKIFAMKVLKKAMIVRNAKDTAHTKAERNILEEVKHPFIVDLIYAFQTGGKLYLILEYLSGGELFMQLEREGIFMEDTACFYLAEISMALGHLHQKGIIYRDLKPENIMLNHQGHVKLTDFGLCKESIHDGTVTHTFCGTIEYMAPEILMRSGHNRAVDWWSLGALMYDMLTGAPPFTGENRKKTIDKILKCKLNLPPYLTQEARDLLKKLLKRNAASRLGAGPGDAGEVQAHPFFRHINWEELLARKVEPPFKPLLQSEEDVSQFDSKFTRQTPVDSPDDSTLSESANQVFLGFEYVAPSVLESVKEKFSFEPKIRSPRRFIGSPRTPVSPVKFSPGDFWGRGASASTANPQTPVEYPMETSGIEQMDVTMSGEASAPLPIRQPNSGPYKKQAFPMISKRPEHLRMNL

His-AKT (Full Length), sequence (P31749 whole entry): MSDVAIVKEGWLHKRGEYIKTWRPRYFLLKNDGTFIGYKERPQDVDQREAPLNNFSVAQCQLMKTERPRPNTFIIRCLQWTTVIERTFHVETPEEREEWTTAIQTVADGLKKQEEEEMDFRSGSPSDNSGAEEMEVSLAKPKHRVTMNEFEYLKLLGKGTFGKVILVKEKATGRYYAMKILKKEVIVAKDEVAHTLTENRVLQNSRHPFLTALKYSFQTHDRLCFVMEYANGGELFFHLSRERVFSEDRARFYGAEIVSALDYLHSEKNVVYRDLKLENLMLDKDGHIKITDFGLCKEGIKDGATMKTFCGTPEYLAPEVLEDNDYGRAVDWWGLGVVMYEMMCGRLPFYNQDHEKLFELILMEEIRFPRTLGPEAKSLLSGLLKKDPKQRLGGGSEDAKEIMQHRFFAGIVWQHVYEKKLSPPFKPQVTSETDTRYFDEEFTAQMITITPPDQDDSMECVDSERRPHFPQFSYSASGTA

One may read the IC50 as the concentration that inhibits the measured activity by half. Regarding `Cc1ccc(-c2c(N)ncnc2N2CCC(c3nc(-c4ccc(F)c(C(F)(F)F)c4)cn3C)CC2)cn1` [Compound 19, 6-{4-[4-(4-Fluoro-3-trifluoromethyl-phenyl)-1-methyl-1H-imidazol-2-yl]-piperidin-1-yl}-5-(6-methyl-pyridin-3-yl)-pyrimidin-4-ylamine], the IC50 came out at 1700 nM at His-AKT (Full Length) and 2.2 nM at P70S6K (T412E mutant).
As to `CN(C)CCN(C)CCn1cc(-c2ccc(F)c(C(F)(F)F)c2)nc1C1CCN(c2ncnc(N)c2C(N)=O)CC1` [Compound 365, 4-Amino-6-{4-[1-{2-[(2-dimethylamino-ethyl)-methyl-amino]-ethyl}-4-(4-fluoro-3-trifluoromethyl-phenyl)-1H-imidazol-2-yl]-piperidin-1-yl}-pyrimidine-5-carboxylic acid amide], the IC50 stood at 730 nM at His-AKT (Full Length) and 6.3 nM at P70S6K (T412E mutant).
For `CCN(C)Cc1c(N)ncnc1N1CCC(c2nc(-c3ccc(F)c(C(F)(F)F)c3)cn2CCN(C)C)CC1` [Compound 95, 6-(4-(1-(2-(dimethylamino)ethyl)-4-(4-fluoro-3-(trifluoromethyl)phenyl)-1H-imidazol-2-yl)piperidin-1-yl)-5-((ethyl(methyl)amino)methyl)pyrimidin-4-amine], in that order: 520 nM and 47 nM.
For `CNc1ncnc(N2CCC(c3nc(-c4ccnc(C(F)(F)F)c4)cn3CCN3CCC3)CC2)c1Cl` [Compound 192, 6-(4-(1-(2-(azetidin-1-yl)ethyl)-4-(2-(trifluoromethyl)pyridin-4-yl)-1H-imidazol-2-yl)piperidin-1-yl)-5-chloro-N-methylpyrimidin-4-amine], in that order: 7200 nM and 2700 nM.
For `Cn1cc(-c2ccc(F)c(C(F)(F)F)c2)nc1C1CCN(c2ncnc(N)c2CO)CC1` [Compound 36, (4-Amino-6-{4-[4-(4-fluoro-3-trifluoromethyl-phenyl)-1-methyl-1H-imidazol-2-yl]-piperidin-1-yl}-pyrimidin-5-yl)-methanol], in that order: 1100 nM and 2.2 nM.
For the molecule `CCc1c(N)ncnc1N1CCC(c2nc(-c3ccc(C(F)(F)F)cc3)cn2CCN2CCCC2)CC1` [Compound 271], the results for the IC50 on His-AKT (Full Length) and at P70S6K (T412E mutant) were 180 nM and 12 nM, respectively.
For `Nc1ncnc(N2CCC(c3nc(-c4ccc(Cl)c(F)c4)cn3CCN3CCCC3)CC2)c1C1CCC1` [Compound 260], in that order: 67 nM and 21 nM.
For `N#Cc1c(N)ncnc1N1CCC(c2nc(-c3ccc(F)c(C(F)(F)F)c3)cn2C2CCNCC2)CC1` [Compound 155, 4-amino-6-(4-(4-(4-fluoro-3-(trifluoromethyl)phenyl)-1-(piperidin-4-yl)-1H-imidazol-2-yl)piperidin-1-yl)pyrimidine-5-carbonitrile], in that order: 160 nM and 0.9 nM.
In the case of `Nc1ncnc(N2CCC(c3nc(-c4cccc(C(F)(F)F)c4)cn3CCN3CCCC3)CC2)c1C1CCC1` [Compound 261], the results for the IC50 at His-AKT (Full Length) and on P70S6K (T412E mutant) were 8.1 nM and 6.3 nM, respectively.
For `COC(=O)c1ccc(-c2c(N)ncnc2N2CCC(c3nc(-c4ccc(F)c(C(F)(F)F)c4)cn3CCN3CCCC3)CC2)cc1` [Compound 223], in that order: 78 nM and 21 nM.
For `Nc1ncnc(N2CCC(c3nc(-c4ccc(O)c(C(F)(F)F)c4)cn3CCN3CCCC3)CC2)c1Cl` [Compound 210], in that order: 3 nM and 3.7 nM.
With `CNCCn1cc(-c2ccnc(C(F)(F)F)c2)nc1C1CCN(c2ncnc(N)c2C#N)CC1` [Compound 169, 4-amino-6-(4-(1-(2-(methylamino)ethyl)-4-(2-(trifluoromethyl)pyridin-4-yl)-1H-imidazol-2-yl)piperidin-1-yl)pyrimidine-5-carbonitrile], the IC50 turned out to be 1.7 nM at His-AKT (Full Length) and 1.3 nM at P70S6K (T412E mutant).
As for `Cc1ccc(-c2cn(CCN3CCC3)c(C3CCN(c4ncnc(N)c4C#N)CC3)n2)cc1C(F)(F)F` [Compound 316], the IC50 on His-AKT (Full Length) worked out at 24 nM; on P70S6K (T412E mutant), 0.8 nM.
As to `N#Cc1c(N)ncnc1N1CCC(c2nc(-c3ccccc3F)cn2CCN2CCC2)CC1` [Compound 353, 4-Amino-6-{4-[1-(2-azetidin-1-yl-ethyl)-4-(2-fluoro-phenyl)-1H-imidazol-2-yl]-piperidin-1-yl}-pyrimidine-5-carbonitrile], the half-inhibitory concentration (IC50) is 140 nM on His-AKT (Full Length) and 14 nM on P70S6K (T412E mutant).
For `N#Cc1c(N)ncnc1N1CCC(c2nc(C3CCCCC3)cn2CCN2CCC2)CC1` [Compound 77, 4-Amino-6-{4-[1-(2-azetidin-1-yl-ethyl)-4-cyclohexyl-1H-imidazol-2-yl]-piperidin-1-yl}-pyrimidine-5-carbonitrile], the IC50 on His-AKT (Full Length) came out at 76 nM; on P70S6K (T412E mutant), 6 nM.
For `Nc1ncnc(N2CCC(c3nc(-c4ccc(F)c(C(F)(F)F)c4)cn3CCN3CCCC3)CC2)c1C=O` [Compound 287], in that order: 1 nM and 0.6 nM.
For `COC(=O)c1ccc(-c2c(N)ncnc2N2CCC(c3nc(-c4ccc(F)c(C(F)(F)F)c4)cn3CCN(C)C)CC2)cc1` [Compound 88, Methyl 4-(4-amino-6-(4-(1-(2-(dimethylamino)ethyl)-4-(4-fluoro-3-(trifluoromethyl)phenyl)-1H-imidazol-2-yl)piperidin-1-yl)pyrimidin-5-yl)benzoate], in that order: 95 nM and 8.1 nM.
For `COc1cc(-c2cn(CCN3CCC3)c(C3CCN(c4ncnc(N)c4C#N)CC3)n2)ccc1F` [Compound 120, 4-amino-6-(4-(1-(2-(azetidin-1-yl)ethyl)-4-(4-fluoro-3-methoxyphenyl)-1H-imidazol-2-yl)piperidin-1-yl)pyrimidine-5-carbonitrile], in that order: 2.4 nM and 1 nM.
Regarding `CNCCn1cc(-c2ccc(F)c(C)c2)nc1C1CCN(c2ncnc(N)c2-c2cn[nH]c2)CC1` [Compound 162, 6-(4-(4-(4-fluoro-3-methylphenyl)-1-(2-(methylamino)ethyl)-1H-imidazol-2-yl)piperidin-1-yl)-5-(1H-pyrazol-4-yl)pyrimidin-4-amine], the IC50 at His-AKT (Full Length) amounted to 21 nM; at P70S6K (T412E mutant) it was 5.9 nM.
Take `Cc1cc(-c2cn(CCNC(C)C)c(C3CCN(c4ncnc(N)c4C#N)CC3)n2)ccc1F` [Compound 380, 4-Amino-6-{4-[4-(4-fluoro-3-methyl-phenyl)-1-(2-isopropylamino-ethyl)-1H-imidazol-2-yl]-piperidin-1-yl}-pyrimidine-5-carbonitrile]: the IC50 at His-AKT (Full Length) amounted to 2.9 nM; at P70S6K (T412E mutant), 1.3 nM.
For `Cc1c(N)ncnc1N1CCC(c2nc(-c3ccc(F)c(C(F)(F)F)c3)cn2CCN2CCCC2)CC1` [Compound 215], in that order: 10 nM and 6.1 nM.
For `CCc1c(N)ncnc1N1CCC(c2nc(-c3ccc(C(F)(F)F)c(F)c3)cn2CCN2CCCC(F)C2)CC1` (stereo not drawn) [Compound 250], in that order: 210 nM and 5.7 nM.
For `CC(C)(C)NCCn1cc(-c2ccc(F)c(C(F)(F)F)c2)nc1C1CCN(c2ncnc(N)c2C#N)CC1` [Compound 375, 4-Amino-6-{4-[1-(2-tert-butylamino-ethyl)-4-(4-fluoro-3-trifluoromethyl-phenyl)-1H-imidazol-2-yl]-piperidin-1-yl}-pyrimidine-5-carbonitrile], in that order: 1.9 nM and 1.3 nM.
`CN(C)CCn1cc(-c2ccc(F)c(C(F)(F)F)c2)nc1C1CCN(c2ncnc(N)c2/C=C/C2CC2)CC1` [Compound 85, (E)-5-(2-Cyclopropylvinyl)-6-(4-(1-(2-(dimethylamino)ethyl)-4-(4-fluoro-3-(trifluoromethyl)phenyl)-1H-imidazol-2-yl)piperidin-1-yl)pyrimidin-4-amine]: the IC50 on His-AKT (Full Length) is 43 nM; at P70S6K (T412E mutant) it was 12 nM.
Turning to `NC(=O)c1c(N)ncnc1N1CCC(c2nc(-c3cccc(C(F)(F)F)c3)cn2CCN2CCCC2)CC1` [Compound 335], the IC50 worked out at 92 nM on His-AKT (Full Length) and 13 nM at P70S6K (T412E mutant).
For `NC(=O)c1c(N)ncnc1N1CCC(c2nc(-c3cccc(F)c3)cn2CCN2CCCC2)CC1` [Compound 334], in that order: 620 nM and 26 nM.
For `N#Cc1c(N)ncnc1N1CCC(c2nc(-c3ccc(OC(F)F)c(F)c3)cn2CCN2CCC2)CC1` [Compound 314], in that order: 4.1 nM and 1.8 nM.
For `CCC(C)(C)NCCn1cc(-c2ccc(F)c(C(F)(F)F)c2)nc1C1CCN(c2ncnc(N)c2C#N)CC1` [Compound 382, 4-Amino-6-{4-[1-[2-(1,1-dimethyl-propylamino)-ethyl]-4-(4-fluoro-3-trifluoromethyl-phenyl)-1H-imidazol-2-yl]-piperidin-1-yl}-pyrimidine-5-carbonitrile], in that order: 4.3 nM and 1.7 nM.
Regarding `CCc1c(N)ncnc1N1CCC(c2nc(-c3ccc(F)c(C)c3)cn2CCN(CC)C(C)C)CC1` [Compound 300], the IC50 at His-AKT (Full Length) is 8.9 nM; on P70S6K (T412E mutant) it was 3.1 nM.
For `CCc1c(N)ncnc1N1CCC(c2nc(-c3ccc(F)c(C(N)=O)c3)cn2CCN2CCC2)CC1` [Compound 106, 5-(2-(1-(6-amino-5-ethylpyrimidin-4-yl)piperidin-4-yl)-1-(2-(azetidin-1-yl)ethyl)-1H-imidazol-4-yl)-2-fluorobenzamide], in that order: 49 nM and 21 nM.
For `CCc1c(N)ncnc1N1CCC(c2nc(-c3ccc(F)c(C(F)(F)F)c3)cn2C2CCNCC2)CC1` [Compound 157, 5-ethyl-6-(4-(4-(4-fluoro-3-(trifluoromethyl)phenyl)-1-(piperidin-4-yl)-1H-imidazol-2-yl)piperidin-1-yl)pyrimidin-4-amine], in that order: 190 nM and 2 nM.
For `Nc1ncnc(N2CCC(c3nc(-c4ccc(C(F)(F)F)c(F)c4)cn3CCN3CCCC3)CC2)c1Cl` [Compound 235], in that order: 1000 nM and 10 nM.
Turning to `CCc1c(N)ncnc1N1CCC(c2nc(-c3cccc(Cl)c3)cn2CCN2CCCC2)CC1` [Compound 274], the IC50 at His-AKT (Full Length) turned out to be 12 nM; at P70S6K (T412E mutant) it was 1.5 nM.
